Data on eleven compounds can be found in US6951876B2, “Sulfamoylheteroaryl pyrazole compounds as anti-inflammatory/analgesic agents” (Pfizer, Inc., priority 1999, dated 2005).

A word on the melting point: it is the temperature, or range, at which the solid turns liquid.

SMILES strings stand for the structures. Counter-ions that a name gives are not always drawn.

Turning to `NS(=O)(=O)c1ccc(-n2nc(C(F)(F)F)cc2-c2ccc(-c3ncco3)c(Cl)c2)cn1` (as salt: hydrochloride) [Example 3, 5-[5-[3-Chloro-4-(1,3-oxazol-2-yl)phenyl]-3-(trifluoromethyl)-1H-pyrazol-1-yl]-2-pyridinesulfonamide], the melting point worked out at 156 °C.
Consider `Cl.NS(=O)(=O)c1ccc(-n2nc(C(F)(F)F)cc2-c2ccc(-c3cncs3)cc2)cn1`, for which the melting point was found to be 138 °C.
On to `Cl.NS(=O)(=O)c1ccc(-n2nc(C(F)(F)F)c(F)c2-c2ccc(-c3cscn3)cc2)cn1`, for which the melting point is 145 °C.
Regarding `Cc1cc(-c2cc(C(F)(F)F)nn2-c2ccc(S(N)(=O)=O)cn2)ccc1-c1cscn1.Cl`, the melting point lay within 138 to 140 °C.
`NS(=O)(=O)c1ccc(-n2nc(C(F)(F)F)cc2-c2ccc(-c3cscn3)c(C(F)(F)F)c2)cn1` [Example 5, 5-{5-[4-(1,3-Thiazol-4-yl)-3-(trifluoromethyl)phenyl]-3-(trifluoromethyl)-1H-pyrazol-1-yl}-2-pyridinesulfonamide] showed a melting point of 114 °C.
The compound `NS(=O)(=O)c1ccc(-n2nc(C(F)(F)F)c(Cl)c2-c2ccc(-c3cncs3)c(Cl)c2)cn1` (as salt: methanesulfonate) [Example 16, 5-[4-Chloro-5-[3-chloro-4-(1,3-thiazol-5-yl)phenyl]-3-trifluoromethyl-1H-pyrazol-1-yl]-2-pyridinesulfonamide] came in with a melting point of 191 to 193 °C.
As to `NS(=O)(=O)c1ccc(-n2nc(C(F)(F)F)cc2-c2ccc(-c3ccco3)cc2)cn1` (as salt: hydrochloride) [Example 2, 5-[5-[4-(2-Furyl)phenyl]-3-(trifluoromethyl)-1H-pyrazol-1-yl]-2-pyridinesulfonamide], the melting point is 140 to 170 °C.
In turn, `Cl.NS(=O)(=O)c1ccc(-n2nc(C(F)(F)F)c(Cl)c2-c2ccc(-c3cscn3)cc2)cn1` showed a melting point of 157 °C.
Take `CCc1c(C(F)(F)F)nn(-c2ccc(S(N)(=O)=O)nc2)c1-c1ccc(-c2cncs2)cc1.Cl`: the melting point worked out at 169 °C.
Turning to `CCc1c(-c2ccc(-c3cscn3)cc2)c(C(F)(F)F)nn1-c1ccc(S(N)(=O)=O)nc1.Cl`, the melting point worked out at 141 °C.
As to `Cl.NS(=O)(=O)c1ccc(-n2nc(C(F)(F)F)cc2-c2ccc(-c3cscn3)cc2)cn1`, the melting point was determined as 121 °C.
